# Earlier results, collected in US20130225598A1, “Stabilized Amorphous Forms of Imatinib Mesylate” (Novartis AG, priority 2007, published 2013).
# Conditions: at temperatures below 140 ° C.
smiles,measurement,value
CS(=O)(=O)O.Cc1ccc(NC(=O)c2ccc(CN3CCN(C)CC3)cc2)cc1Nc1nccc(-c2cccnc2)n1 [4-(4-methylpiperazin-1-ylmethyl)-N-[4-methyl-3-(4-(pyridin-3-yl)-pyrimidin-2-ylamino-)phenyl]-benzamide mesylate],thermodynamic stability relative to alpha crystal form,thermodynamically more stable than the alpha form
